Laboratory results: patent US20120121679A1, “VIRICIDAL AND MICROBICIDAL COMPOSITIONS AND USES THEREOF” (University of Georgia Research Foundation, Inc., priority 2009, published 2012)
Where two headings read alike, the source gives them in different places.

How the values were obtained:
[1] = test system: Feline Calicivirus (FCV); assay: Inactivation of FCV by levulinic acid plus SDS in solution, plaque assay; conditions: 21° C., 1 min
[2] = test system: Murine norovirus (MNV-1); assay: Inactivation of MNV-1 by levulinic acid plus SDS in solution, plaque assay; conditions: 21° C., 1 min
[3] = test system: yeast species; assay: Effect of levulinic acids plus SDS at 21° C. on various yeast species
[4] = test system: S. enteritidis; assay: Reduction of S. enteritidis in water treated with organic acids and SDS; type: cell-based, Salmonella enteritidis; conditions: within 30 minutes
[5] = test system: spores of Bacillus anthracis Sterne (34F2); type: cell-based
[6] = Candida magnoliae, inoculum […] 10^8 CFU/ml
[7] = Debaryomyces hansenii, inoculum […] 10^7 CFU/ml
[8] = Geotrichum candidum, inoculum […] 10^7 CFU/ml
[9] = Saccharomyces cerevisiae, inoculum […] 10^7 CFU/ml
[10] = Zygosaccharomyces bailii, inoculum […] 10^7 CFU/ml

CC(=O)CCC(=O)O [0.5% levulinic acid, levulinic acid]
Log Reduction PFU/ml (standard deviation), FCV [1]: 0.09 (±0.16) log PFU/ml
Log Reduction PFU/ml (standard deviation), MNV-1 [2]: 0.09 (±0.38) log PFU/ml

CC(=O)CCC(=O)O [2.0% levulinic acids]
Yeast counts at 2 min [3, 6]: 5.9 log CFU/ml
Yeast counts at 5 min [3, 6]: 5.9 log CFU/ml
Yeast counts at 20 min [3, 6]: 6.0 log CFU/ml
Yeast counts at 30 min [3, 6]: 5.9 log CFU/ml
Yeast counts at 60 min [3, 6]: 5.8 log CFU/ml

CCCCCCCCCCCCOS(=O)(=O)[O-].[Na+] [0.5% SDS, sodium dodecyl sulfate]
Log Reduction PFU/ml (standard deviation), FCV ([1]; sulfate): −0.09 (±0.27) log PFU/ml
Log Reduction PFU/ml (standard deviation), MNV-1 ([2]; sulfate): 0.13 (±0.20) log PFU/ml

CC(=O)CCC(=O)O [3.0% levulinic acid, levulinic acid]
Salmonella reduction in water [4]: 3.4 log CFU/ml
Salmonella reduction in water ([4]; listed as 3% levulinic acid): about 3.4 log CFU/ml
CFU/ml % recovery (as compared to control flask F) ([5]; Experiment A3, 0 min): 108%
CFU/ml % recovery (as compared to control flask F) ([5]; Experiment A3, 10 min): 81%
CFU/ml % recovery (as compared to control flask F) ([5]; Experiment A3, 45 min): 55%
CFU/ml % recovery (as compared to control flask F) ([5]; Experiment A3, 90 min): 64%
CFU/ml % recovery (as compared to control flask F) ([5]; Experiment A4 absent heat, RT, 0 min): 89%
CFU/ml % recovery (as compared to control flask F) ([5]; Experiment A4 absent heat, RT, 1 h): 54%
CFU/ml % recovery (as compared to control flask F) ([5]; Experiment A4 absent heat, RT, 2 h): 27%
CFU/ml % recovery (as compared to control flask F) ([5]; Experiment A4 absent heat, RT, 3 h): 30%
CFU/ml % recovery (as compared to control flask F) ([5]; Experiment A4 absent heat, RT, 4 h): 15%
CFU/ml % recovery (as compared to control flask F) ([5]; Experiment A4 with heat, 65° C., 0 min): 70%
CFU/ml % recovery (as compared to control flask F) ([5]; Experiment A4 with heat, 65° C., 1 h): 78%
CFU/ml % recovery (as compared to control flask F) ([5]; Experiment A4 with heat, 65° C., 2 h): 45%
CFU/ml % recovery (as compared to control flask F) ([5]; Experiment A4 with heat, 65° C., 3 h): 33%
CFU/ml % recovery (as compared to control flask F) ([5]; Experiment A4 with heat, 65° C., 4 h): 46%
CFU/ml % recovery (as compared to control flask F) ([5]; Experiment A5 absent heat, RT, 0 min): 105%
CFU/ml % recovery (as compared to control flask F) ([5]; Experiment A5 absent heat, RT, 1 h): 80%
CFU/ml % recovery (as compared to control flask F) ([5]; Experiment A5 absent heat, RT, 2 h): 46%
CFU/ml % recovery (as compared to control flask F) ([5]; Experiment A5 absent heat, RT, 3 h): 67%
CFU/ml % recovery (as compared to control flask F) ([5]; Experiment A5 absent heat, RT, 4 h): 37%
CFU/ml % recovery (as compared to control flask F) ([5]; Experiment A5 with heat, 65° C., 0 min): 75%
CFU/ml % recovery (as compared to control flask F) ([5]; Experiment A5 with heat, 65° C., 1 h): 58%
CFU/ml % recovery (as compared to control flask F) ([5]; Experiment A5 with heat, 65° C., 2 h): 34%
CFU/ml % recovery (as compared to control flask F) ([5]; Experiment A5 with heat, 65° C., 3 h): 34%
CFU/ml % recovery (as compared to control flask F) ([5]; Experiment A5 with heat, 65° C., 4 h): 14%
Log Reduction PFU/ml (standard deviation), FCV ([1]; listed as 3% Levulinic acid): 0.43 (±0.23) log PFU/ml
Log Reduction PFU/ml (standard deviation), MNV-1 ([2]; listed as 3% Levulinic acid): −0.09 (±0.10) log PFU/ml

CCCCCCCCCCCCOS(=O)(=O)[O-].[Na+] [1.0% SDS]
Yeast counts at 2 min [3, 6]: 3.3 log CFU/ml
Yeast counts at 5 min [3, 6]: 3.2 log CFU/ml
Yeast counts at 20 min [3, 6]: 2.7 log CFU/ml
Yeast counts at 30 min [3, 6]: 3.0 log CFU/ml
Yeast counts at 60 min [3, 6]: 3.1 log CFU/ml
Yeast counts at 2 min [3, 7]: 4.1 log CFU/ml
Yeast counts at 5 min [3, 7]: 4.5 log CFU/ml
Yeast counts at 20 min [3, 7]: 4.5 log CFU/ml
Yeast counts at 30 min [3, 7]: 4.5 log CFU/ml
Yeast counts at 60 min [3, 7]: 4.4 log CFU/ml
Yeast counts at 2 min [3, 8]: 3.3 log CFU/ml
Yeast counts at 5 min [3, 8]: 3.5 log CFU/ml
Yeast counts at 20 min [3, 8]: 3.5 log CFU/ml
Yeast counts at 30 min [3, 8]: 3.4 log CFU/ml
Yeast counts at 60 min [3, 8]: 3.3 log CFU/ml
Yeast counts at 2 min [3, 9]: 2.6 log CFU/ml
Yeast counts at 5 min [3, 9]: 2.3 log CFU/ml
Yeast counts at 20 min [3, 9]: 2.7 log CFU/ml
Yeast counts at 30 min [3, 9]: 2.3 log CFU/ml
Yeast counts at 60 min [3, 9]: 2.4 log CFU/ml
Yeast counts at 2 min [3, 10]: 4.6 log CFU/ml
Yeast counts at 5 min [3, 10]: 4.6 log CFU/ml
Yeast counts at 20 min [3, 10]: 4.5 log CFU/ml
Yeast counts at 30 min [3, 10]: 4.5 log CFU/ml
Yeast counts at 60 min [3, 10]: 4.4 log CFU/ml
